Blank lines part the entries; values can stand above or below the compound they belong to.
Assays:
Type in all cases: ADME, subcellular
Aldehyde oxidase [1] = biological target: T1, Aldehyde oxidase (Homo sapiens, UniProt Q06278); assay: Drug level in human liver S9 fraction assessed as aldehyde oxidase-mediated compound formation treated with 10 uM N-carbamimidoyl-5-cyclopropyl-1-(quinolin-6-yl)-1H-pyrazole-4-carboxamide by spectrometry
T1 sequence (Q06278 whole entry): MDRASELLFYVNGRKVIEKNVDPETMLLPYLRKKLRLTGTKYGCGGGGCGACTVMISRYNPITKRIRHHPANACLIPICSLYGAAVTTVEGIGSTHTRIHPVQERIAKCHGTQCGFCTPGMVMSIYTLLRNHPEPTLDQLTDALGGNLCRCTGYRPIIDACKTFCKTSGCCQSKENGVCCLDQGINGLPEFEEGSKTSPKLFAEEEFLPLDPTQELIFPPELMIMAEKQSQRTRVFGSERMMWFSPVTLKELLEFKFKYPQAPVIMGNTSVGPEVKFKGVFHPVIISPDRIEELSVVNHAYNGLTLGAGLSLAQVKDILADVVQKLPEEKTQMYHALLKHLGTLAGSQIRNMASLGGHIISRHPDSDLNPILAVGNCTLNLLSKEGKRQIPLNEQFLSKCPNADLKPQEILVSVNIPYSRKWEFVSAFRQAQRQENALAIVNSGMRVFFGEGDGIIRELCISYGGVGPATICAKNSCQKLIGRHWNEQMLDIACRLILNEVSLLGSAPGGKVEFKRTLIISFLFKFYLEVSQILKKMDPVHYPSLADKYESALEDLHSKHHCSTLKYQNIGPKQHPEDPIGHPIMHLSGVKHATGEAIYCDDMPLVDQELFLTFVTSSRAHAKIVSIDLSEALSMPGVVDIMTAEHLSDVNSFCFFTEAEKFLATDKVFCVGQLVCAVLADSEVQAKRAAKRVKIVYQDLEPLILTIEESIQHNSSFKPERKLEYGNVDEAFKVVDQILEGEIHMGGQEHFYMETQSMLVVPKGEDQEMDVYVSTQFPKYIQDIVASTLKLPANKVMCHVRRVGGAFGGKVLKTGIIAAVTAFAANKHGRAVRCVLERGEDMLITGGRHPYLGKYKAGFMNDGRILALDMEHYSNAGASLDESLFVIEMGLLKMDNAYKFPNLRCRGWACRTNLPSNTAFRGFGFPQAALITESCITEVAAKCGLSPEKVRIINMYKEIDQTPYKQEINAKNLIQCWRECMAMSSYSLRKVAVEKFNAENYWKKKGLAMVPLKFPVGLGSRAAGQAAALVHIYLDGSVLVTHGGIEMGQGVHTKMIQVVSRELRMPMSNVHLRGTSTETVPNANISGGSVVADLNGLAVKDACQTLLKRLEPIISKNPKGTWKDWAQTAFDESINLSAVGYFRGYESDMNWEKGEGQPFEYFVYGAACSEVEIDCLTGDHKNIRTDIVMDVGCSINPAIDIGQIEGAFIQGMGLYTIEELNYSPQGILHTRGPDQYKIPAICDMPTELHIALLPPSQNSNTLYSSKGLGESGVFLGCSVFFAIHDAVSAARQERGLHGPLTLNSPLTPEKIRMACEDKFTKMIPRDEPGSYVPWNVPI

Aldehyde oxidase [2] = biological target: T1, Aldehyde oxidase; assay: Drug level in human liver S9 fraction assessed as aldehyde oxidase-mediated compound formation treated with 10 uM N-carbamimidoyl-5-cyclopropyl-1-(quinolin-4-yl)-1H-pyrazole-4-carboxamide by spectrometry
Aldehyde oxidase [3] = biological target: T1, Aldehyde oxidase; assay: Drug level in human liver S9 fraction assessed as aldehyde oxidase-mediated compound formation treated with 10 uM 1-(1H-benzo[d]imidazol-4-yl)-N-carbamimidoyl-5-cyclopropyl-1H-pyrazole-4-carboxamide by spectrometry

Drug metabolism (Aldehyde oxidase [1]): metabolite_detected
Structure (SMILES): N=C(N)NC(=O)c1cnn(-c2ccc3[nH]c(=O)ccc3c2)c1C1CC1

Drug metabolism (Aldehyde oxidase [2]): metabolite_detected
Structure (SMILES): N=C(N)NC(=O)c1cnn(-c2cc(=O)[nH]c3ccccc23)c1C1CC1

Drug metabolism (Aldehyde oxidase [3]): metabolite_detected
Structure (SMILES): N=C(N)NC(=O)c1cnn(-c2cccc3[nH]c(=O)[nH]c23)c1C1CC1

Reference: ChEMBL document CHEMBL3525904, “Effect of structural variation on aldehyde oxidase-catalyzed oxidation of zoniporide” (Drug Metab Dispos, 2012)
